Results on 23 compounds are retold here after patent US20240034723A1, “PIPERIDINYL SMALL MOLECULE DEGRADERS OF HELIOS AND METHODS OF USE” (DANA-FARBER CANCER INSTITUTE, INC., priority 2020, published 2024).

Where only a bound is given, the exact number is not on record here.

The target of this test is T1, IKZF2 (Helios) (Homo sapiens, UniProt Q96SW2+Q9UKS7).
T1 construct: CRISPR/Cas-mediated insertion of the HiBiT peptide tag (Promega™) to the N-terminus of the IKZF2 gene locus; endogenous in cells; host or cells: MOLT4 cells, CRISPR/Cas knock-in of HiBiT at the endogenous IKZF2 locus
T1 sequence (Q9UKS7 whole entry): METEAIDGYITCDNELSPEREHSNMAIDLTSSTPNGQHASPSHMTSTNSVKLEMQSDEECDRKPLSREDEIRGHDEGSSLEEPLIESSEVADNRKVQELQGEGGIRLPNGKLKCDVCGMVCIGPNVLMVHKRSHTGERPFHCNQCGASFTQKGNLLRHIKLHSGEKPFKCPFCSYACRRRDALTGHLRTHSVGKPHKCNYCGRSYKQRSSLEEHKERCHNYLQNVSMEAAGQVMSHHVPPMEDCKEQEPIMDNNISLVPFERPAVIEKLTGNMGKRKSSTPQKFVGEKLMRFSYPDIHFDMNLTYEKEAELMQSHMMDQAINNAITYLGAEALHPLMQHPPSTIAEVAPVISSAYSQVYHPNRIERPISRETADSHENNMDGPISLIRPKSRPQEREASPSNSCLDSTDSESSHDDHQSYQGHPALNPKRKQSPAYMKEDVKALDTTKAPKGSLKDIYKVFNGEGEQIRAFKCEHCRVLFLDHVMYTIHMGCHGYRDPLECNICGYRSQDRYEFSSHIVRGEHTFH
T1 sequence (Q96SW2 whole entry): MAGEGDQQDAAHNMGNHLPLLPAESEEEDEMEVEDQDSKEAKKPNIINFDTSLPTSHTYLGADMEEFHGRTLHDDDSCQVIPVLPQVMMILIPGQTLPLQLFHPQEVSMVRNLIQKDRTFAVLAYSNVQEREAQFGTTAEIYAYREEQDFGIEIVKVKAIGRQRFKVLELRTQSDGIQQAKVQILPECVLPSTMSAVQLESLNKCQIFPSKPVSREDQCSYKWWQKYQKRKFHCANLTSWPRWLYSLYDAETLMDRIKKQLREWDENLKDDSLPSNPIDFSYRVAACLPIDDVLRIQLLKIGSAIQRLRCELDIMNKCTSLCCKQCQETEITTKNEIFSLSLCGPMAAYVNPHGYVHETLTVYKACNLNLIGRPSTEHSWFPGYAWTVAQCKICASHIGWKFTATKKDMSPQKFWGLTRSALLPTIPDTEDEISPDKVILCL
T1 sequence (Q16531 whole entry partner): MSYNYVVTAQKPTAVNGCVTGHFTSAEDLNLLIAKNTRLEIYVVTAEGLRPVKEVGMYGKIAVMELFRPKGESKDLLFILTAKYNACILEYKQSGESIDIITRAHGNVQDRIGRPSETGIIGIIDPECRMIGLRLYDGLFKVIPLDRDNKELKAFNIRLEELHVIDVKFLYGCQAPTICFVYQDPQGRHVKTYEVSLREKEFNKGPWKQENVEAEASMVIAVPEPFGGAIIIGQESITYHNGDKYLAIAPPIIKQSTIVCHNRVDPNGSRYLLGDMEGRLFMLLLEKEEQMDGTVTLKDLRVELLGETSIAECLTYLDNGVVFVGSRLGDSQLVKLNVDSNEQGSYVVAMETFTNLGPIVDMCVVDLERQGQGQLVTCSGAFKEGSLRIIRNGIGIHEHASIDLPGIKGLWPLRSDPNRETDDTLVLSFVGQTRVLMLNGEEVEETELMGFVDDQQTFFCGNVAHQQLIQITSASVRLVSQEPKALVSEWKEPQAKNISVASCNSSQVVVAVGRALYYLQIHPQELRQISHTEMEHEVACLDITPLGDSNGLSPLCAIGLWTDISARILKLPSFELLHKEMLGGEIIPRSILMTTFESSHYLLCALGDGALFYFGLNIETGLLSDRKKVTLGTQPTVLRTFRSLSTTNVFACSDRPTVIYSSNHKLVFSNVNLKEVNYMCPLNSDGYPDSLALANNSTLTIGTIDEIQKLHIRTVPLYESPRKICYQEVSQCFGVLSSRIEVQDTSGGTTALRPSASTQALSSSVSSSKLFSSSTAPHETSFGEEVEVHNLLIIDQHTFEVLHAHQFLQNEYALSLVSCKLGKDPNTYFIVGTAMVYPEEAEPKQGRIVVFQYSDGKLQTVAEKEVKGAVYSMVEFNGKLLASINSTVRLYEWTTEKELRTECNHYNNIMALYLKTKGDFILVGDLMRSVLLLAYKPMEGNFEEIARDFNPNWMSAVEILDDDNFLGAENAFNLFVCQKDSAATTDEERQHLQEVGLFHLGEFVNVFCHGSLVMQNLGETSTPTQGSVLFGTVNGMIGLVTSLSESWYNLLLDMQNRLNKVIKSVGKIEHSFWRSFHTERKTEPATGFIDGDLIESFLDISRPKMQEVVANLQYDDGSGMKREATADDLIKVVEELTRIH
The test can be described thus: HiBiT protocol: HiBiT-Helios degradation in MOLT4 cells (Example 63). The format is cell-based. Particulars: after 6 hours of treatment, 13-point 10 μM to 0.00026 μM. Here is the method: The HiBiT protein tagging system was applied to MOLT4 cells via a CRISPR/Cas-mediated insertion of the HiBiT peptide tag (Promega™) to the N-terminus of the IKZF2 gene locus (Neon™ Transfection System). The resulting HiBiT-Helios stable cell line was treated with the following inventive compounds in triplicates following a 13-point concentration scheme ranging from 10 μM to 0.00026 μM. At the indicated timepoints, the Nano-Glo® HiBiT Lytic Detection system (Promega™) was utilized for detecting bioluminescence of the HiBiT tag in treated cells: the abundance of the tag is proportionate to the level of luminescence. Following normalization to DMSO, dose-response curves were plotted (GraphPad Prism) to determine the concentration points at which 50% of HiBiT-Helios degradation was achieved by each compound. The extent of degradation (range of luminescence) from the highest to lowest concentration points was calculated to determine Dmax.
By DC50 is commonly meant the concentration at which degradation of the target reaches its halfway point. Read a high DC50 as a less potent degrader. As to `O=C1CCC(N2Cc3cc(C4CCN(Cc5ccc6cnn(-c7ccccn7)c(=O)c6c5)CC4)ccc3C2=O)C(=O)N1` (centres unmarked) [Compound 43, 3-[1-oxo-5-[1-[[4-oxo-3-(2-pyridyl)phthalazin-6-yl]methyl]-4-piperidyl]isoindolin-2-yl]piperidine-2,6-dione], the DC50 was in the range of 5 to 25 nM. As for `O=C1CCC(N2Cc3cc(C4CCN(Cc5ccc6c(c5)C(=O)N(c5cccc(Cl)c5)CCO6)CC4)ccc3C2=O)C(=O)N1` (centres unmarked) [Compound 6], the DC50 was under 5 nM. `O=C1CCC(N2Cc3cc(C4CCN(Cc5ccc6cn(-c7ccccc7)nc6c5)CC4)ccc3C2=O)C(=O)N1` (centres unmarked) [Compound 42] had a DC50 of under 5 nM. The same measure for `O=C1CCC(N2Cc3cc(C4CCN(Cc5ccc6ncn(-c7ccccc7)c(=O)c6c5)CC4)ccc3C2=O)C(=O)N1` (centres unmarked) [Compound 44]: 5 to 25 nM; for `Cn1cccc(Nc2cccc(CN3CCC(c4ccc5c(c4)CN(C4CCC(=O)NC4=O)C5=O)CC3)c2)c1=O` (centres unmarked) [Compound 12, 3-(5-(1-(3-((1-Methyl-2-oxo-1,2-dihydropyridin-3-yl)amino)benzyl)piperidin-4-yl)-1-oxoisoindolin-2-yl)piperidine-2,6-dione]: 5 to 25 nM; for `O=C1CCC(N2Cc3cc(C4CCN(Cc5ccc6ncn(-c7ncccc7F)c(=O)c6c5)CC4)ccc3C2=O)C(=O)N1` (centres unmarked) [Compound 58]: under 5 nM. The same measure for `O=C1CCC(N2Cc3cc(C4CCN(Cc5ccc6c(c5)C(=O)N(c5ncccn5)CCO6)CC4)ccc3C2=O)C(=O)N1` (centres unmarked) [Compound 46]: 5 to 25 nM. The value for `O=C1CCC(N2Cc3cc(C4CCN(Cc5ccc6c(c5)C(=O)N(c5ccccc5)CCO6)CC4)ccc3C2=O)C(=O)N1` (centres unmarked) [Compound 1, 3-(1-oxo-5-(1-((5-oxo-4-phenyl-2,3,4,5-tetrahydrobenzo[f][1,4]oxazepin-7-yl)methyl)piperidin-4-yl)isoindolin-2-yl)piperidine-2,6-dione] was under 5 nM; that for `O=C1CCC(N2Cc3cc(C4CCN(Cc5cc6n(n5)CCN(c5ccccc5)C6=O)CC4)ccc3C2=O)C(=O)N1` (centres unmarked) [Compound 8, 3-(1-oxo-5-(1-((4-oxo-5-phenyl-4,5,6,7-tetrahydropyrazolo[1,5a]pyrazin-2-yl)methyl)piperidin-4-yl)isoindolin-2-yl)piperidine-2,6-dione] was 5 to 25 nM. On to `O=C1CCC(N2Cc3cc(C4CCN(Cc5ccc6c(c5)N(c5ccccc5)C(=O)C6)CC4)ccc3C2=O)C(=O)N1` (centres unmarked) [Compound 18, 3-[1-oxo-5-[1-[(2-oxo-1-phenyl-indolin-6-yl)methyl]-4-piperidyl]isoindolin-2-yl]piperidine-2,6-dione], for which the DC50 is under 5 nM. As for `O=C1CCC(N2Cc3cc(C4CCN(Cc5ccc6c(c5)C(=O)N(c5ccccc5F)CCO6)CC4)ccc3C2=O)C(=O)N1` (centres unmarked) [Compound 45], the DC50 was under 5 nM.

Compound `O=C1CCC(N2Cc3cc(C4CCN(Cc5ccc6ncn(-c7ccccn7)c(=O)c6c5)CC4)ccc3C2=O)C(=O)N1` (centres unmarked) [Compound 31, 3-(1-oxo-5-(1-((4-oxo-3-(pyridin-2-yl)-3,4-dihydroquinazolin-6-yl)methyl)piperidin-4-yl)isoindolin-2-yl)piperidine-2,6-dione] gave a DC50 of 5 to 25 nM. The value for `O=C1CCC(N2Cc3cc(C4CCN(Cc5ccc6c(c5)N(c5ccccc5)C(=O)CCC6)CC4)ccc3C2=O)C(=O)N1` (centres unmarked) [Compound 22] was 5 to 25 nM; that for `O=C1CCC(N2Cc3cc(C4CCN(Cc5ccc6cc(-c7ccccc7)nn6c5)CC4)ccc3C2=O)C(=O)N1` (centres unmarked) [Compound 38, 3-[1-oxo-5-[1-[(2-phenylpyrazolo[1,5-a]pyridin-6-yl)methyl]-4-piperidyl]isoindolin-2-yl]piperidine-2,6-dione] was 5 to 25 nM; that for `O=C1CCC(N2Cc3cc(C4CCN(Cc5ccc6ccc(-c7ccccc7)nc6c5)CC4)ccc3C2=O)C(=O)N1` (centres unmarked) [Compound 41] was 25 to 100 nM. The same measure for `O=C1CCC(N2Cc3cc(C4CCN(Cc5ccc6c(c5)C(=O)N(c5ccns5)CCO6)CC4)ccc3C2=O)C(=O)N1` (centres unmarked) [Compound 49]: under 5 nM; for `O=C1CCC(N2Cc3cc(C4CCN(Cc5ccc6ncn(-c7ccns7)c(=O)c6c5)CC4)ccc3C2=O)C(=O)N1` (centres unmarked) [Compound 59]: 5 to 25 nM. The value for `O=C1CCC(N2Cc3cc(C4CCN(Cc5ccc6ccn(-c7ccccn7)c(=O)c6c5)CC4)ccc3C2=O)C(=O)N1` (centres unmarked) [Compound 57] was under 5 nM; that for `O=C1CCC(N2Cc3cc(C4CCN(Cc5ccc6ncn(-c7ccccc7F)c(=O)c6c5)CC4)ccc3C2=O)C(=O)N1` (centres unmarked) [Compound 27] was 5 to 25 nM; that for `O=C1CCC(N2Cc3cc(C4CCN(Cc5ccc6c(c5)C(=O)N(c5cccc(F)c5)CCO6)CC4)ccc3C2=O)C(=O)N1` (centres unmarked) [Compound 5] was under 5 nM. The compound `O=C1CCC(N2Cc3cc(C4CCN(Cc5ccc6c(c5)C(=O)N(c5ccsn5)CCO6)CC4)ccc3C2=O)C(=O)N1` (centres unmarked) [Compound 48] returned a DC50 of 5 to 25 nM.

`O=C1CCC(N2Cc3cc(C4CCN(Cc5ccc6c(c5)C(=O)N(c5ccccn5)CCO6)CC4)ccc3C2=O)C(=O)N1` (centres unmarked) [Compound 3] returned a DC50 of 5 to 25 nM. On to `O=C1CCC(N2Cc3cc(C4CCN(Cc5ccc6c(c5)C(=O)N(c5ccncn5)CCO6)CC4)ccc3C2=O)C(=O)N1` (centres unmarked) [Compound 47], for which the half-maximal degradation concentration (DC50) was in the range of 5 to 25 nM.
